Reference: ChEMBL document CHEMBL2385056, “Imidazopyrazine Derivatives As Inhibitors of mTOR” (ACS Med Chem Lett, 2013)

Experiments:
mTORC1 = mTORC1 (Homo sapiens, UniProt P42345); assay: Inhibition of mTORC1 in human PC3 cells assessed as reduction of phosphorylated 4E-BP1Thr37/46 level after 90 mins by HTRF assay; type: cell-based, PC-3
[1] = Inhibition of mTORC2 in human PC3 cells assessed as reduction of phosphorylated AKT Ser473 level after 90 mins by HTRF assay; type: cell-based; details: PC-3, 1.5 h

SMILES | IC50 (mTORC1) | IC50 [1]
Nc1nc([C@@H]2C[C@H]3CC[C@@H](C2)N3C(=O)c2nnc[nH]2)cn2c(-c3ccc(-c4ccccc4)nc3)cnc12 | 100 nM | 1 nM
Nc1nc([C@@H]2C[C@H]3CC[C@@H](C2)N3C(=O)c2nnc[nH]2)cn2c(-c3cnn(-c4ccccc4)c3)cnc12 | 1860 nM | 1140 nM
Cn1ccc(-c2ccc(-c3cnc4c(N)nc([C@@H]5C[C@H]6CC[C@@H](C5)N6C(=O)c5nnc[nH]5)cn34)cn2)n1 | 1000 nM | 1000 nM

The next lines start with the values.

IC50 (mTORC1) | IC50 [1] | SMILES
> 10000 nM | > 10000 nM | Nc1nc([C@@H]2C[C@H]3CC[C@@H](C2)N3C(=O)c2nnc[nH]2)cn2c(-c3ccc(-c4ncc[nH]4)nc3)cnc12
100 nM | 100 nM | Nc1nc([C@@H]2C[C@H]3CC[C@@H](C2)N3C(=O)CO)cn2c(-c3ccc(-c4ccccc4)nc3)cnc12
